What was measured:
Assay type in all cases: cell-based, mouse
Settings in all cases: 1 week-old, after 1 week of stress treatment, SLO 10 μg/mL, ATP 2.4 mM, Ca 2 mM CaCl2
[1] = system: Bone Marrow somatic cells; test: Percent of cells demonstrating pluripotent phenotype after stress treatment, bone marrow cells
Excerpt: (§1) Stress alteration of mature somatic cells procured from various adult tissues. To examine whether ACCs could be generated not only mature lymphocytes but also other types of somatic cells, brain, skin, muscle, fat, bone marrow, lung and liver were harvested from Oct4-GFP (GOF) mice^8. Cells were isolated from the tissue samples, dissociated into single cells, and treated with different physical and or chemical stress conditions. The efficiency of the process to alter the cells differed as a function of both the source of cells and the stress condition(s) to which the cells were exposed (FIG. 7A). The ability of stress to alter mature cells to express Oct4, differed depending on the derivation of cells, but stress was able to alter cells to express Oct4 to some degree in mature cells derived from all three germ layers (FIG. 7A). ACC colonies derived from any mature tissue expressed pluripotent markers, E-cadherin, Nanog, PCAM-1 and AP (data not shown), and ES specific marker genes (FIG. 7B). Significant physical and chemical stresses altered mature somatic cells to revert to a stem cell state, despite of the source of tissues and derivation of the germ layers.
(§2) Exposure to external stimuli—stress treatment. […]
(§3) Fluorescence-Activated Cell Sorting and Flow Cytometry. […] Cells were sorted on a BD FACSAria SORP and analyzed on a BD LSRII with BD FACSDiva Software (BD Biosciences).

Brain somatic cells = test: Percent of cells demonstrating pluripotent phenotype after stress treatment, brain cells
Lung somatic cells = test: Percent of cells demonstrating pluripotent phenotype after stress treatment, lung cells
Excerpt: as §1, §2, §3

Muscle somatic cells = test: Percent of cells demonstrating pluripotent phenotype after stress treatment, muscle cells
Excerpt: as §1, §2, §3

Fat somatic cells = test: Percent of cells demonstrating pluripotent phenotype after stress treatment, fat cells
Excerpt: as §1, §2, §3

Fibroblast = test: Percent of cells demonstrating pluripotent phenotype after stress treatment, fibroblasts
Excerpt: as §1, §2, §3

streptolysin O [SLO]
Percent of cells demonstrating pluripotent phenotype [1]: 13.2%
Percent of cells demonstrating pluripotent phenotype (Brain somatic cells): 10.3%
Percent of cells demonstrating pluripotent phenotype (Lung somatic cells): 18.4%
Percent of cells demonstrating pluripotent phenotype (Muscle somatic cells): 20.5%
Percent of cells demonstrating pluripotent phenotype (Fat somatic cells): 32.8%
Percent of cells demonstrating pluripotent phenotype (Fibroblast): 15.2%
